Measured values reported in US20260176267A1, “PREPARATION OF IMIDAZOPYRIDINE AND IMIDAZOPYRIDAZINE DERIVATIVES AS NOVEL DIACYLGLYCERIDE O-ACYLTRANSFERASE 2 INHIBITORS” (Merck Sharp & Dohme LLC, priority 2022, published 2026).

The compounds below were run against T1, human DGAT2 (hDGAT2) (Homo sapiens, UniProt Q96PD7) (assay: DGAT2 Enzymatic Activity Assay). Details: membrane prep of Sf-9 cells expressing hDGAT2; 13C18-triolein product by LC/MS/MS; 25 μM diolein, 5 μM 13C oleoyl-CoA, rt.
T1 construct: made in house; host or cells: Sf-9 insect cells (baculovirus), membrane fraction
T1 sequence (Q96PD7 1-388): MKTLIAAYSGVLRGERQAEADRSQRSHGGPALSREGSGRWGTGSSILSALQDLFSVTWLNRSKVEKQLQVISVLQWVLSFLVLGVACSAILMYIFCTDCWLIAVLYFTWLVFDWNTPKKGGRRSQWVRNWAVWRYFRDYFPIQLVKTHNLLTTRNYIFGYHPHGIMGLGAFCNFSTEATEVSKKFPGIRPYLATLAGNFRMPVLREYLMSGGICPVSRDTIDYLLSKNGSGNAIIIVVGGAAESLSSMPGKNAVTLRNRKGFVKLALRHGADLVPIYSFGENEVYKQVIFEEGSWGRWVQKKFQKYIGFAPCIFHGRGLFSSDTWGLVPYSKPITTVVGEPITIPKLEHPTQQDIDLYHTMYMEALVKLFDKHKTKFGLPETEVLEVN
Type: biochemical
Experimental: Sf-9 insect cells were maintained in Grace's insect cell culture medium with 10% heated-inactivated fetal bovine serum, 1% Pluronic F-68 and 0.14 μg/ml Kanamycine sulfate at 27° C. in a shaker incubator. After infection with untagged baculovirus expressing human DGAT2 (hDGAT2) at multiplicity of infection (MOI) 3 for 48 hours, cells were harvested. Cell pellets were suspended in buffer containing 10 mM Tris-HCl pH 7.5, 1 mM EDTA, 250 mM sucrose and Complete Protease Inhibitor Cocktail (Sigma Aldrich), and sonicated on ice. Cell debris were removed by centrifugation at 2000×g for 15 minutes. Membrane fractions were isolated by ultracentrifugation (100,000×g), resuspended in the same buffer, and frozen (−80° C.) for later use. The protein concentration was determined with the Pierce™ BCA Protein Assay Kit (Thermo Fisher Scientific).
LC/MS/MS analyses were performed using Thermal Fisher's LX4-TSQ Vantage system. This system consists of an Agilent binary high-performance liquid chromatography (HPLC) pump and a TSQ Vantage triple quadrupole MS/MS instrument. For each sample, 2 μL samples from the top organic layer of in-plate liquid-liquid extraction were injected onto a Thermo Betabasic C4 column (2.1 mm×20 mm, 5 μm particle size). The samples were then eluted using the following conditions; mobile phase: Isopropanol:acetonitrile/10 mM ammonium formate=50/35/15 (v/v/v), flow rate: 0.8 mL/min, temperature: 25° C. Data was acquired in positive mode using a heated electrospray ionization (HESI) interface. The operational parameters for the TSQ Vantage MS/MS instrument were a spray voltage of 3000 V, capillary temperature of 280° C., vaporizer temperature 400° C., sheath gas 45 arbitrary unit. Aux gas 10 arbitrary units. […] The peak area was integrated by Xcalibur Quan software. The ratio between the ^13C18 triolein generated in the reaction and spiked in internal standard ^13C21-triolein was used to generate percentage inhibition and IC50 values. Compound percentage inhibition was calculated by the following formula: Inhibition %=1−[(compound response−low control)/(high control−low control)]×100%.
DGAT2 activity was determined by measuring the amount of enzymatic product ^13C18-triolein (^13C-1,2,3-Tri(cis-9-octadecenoyl)glycerol) using the membrane prep mentioned above. The assay was carried out in ABgene 384-well assay plates in a final volume of 25 μL at rt.

| SMILES | IC50 |
| --- | --- |
| CC1(NC(=O)c2cn3cc(Oc4ncc(F)cc4OCC(F)(F)F)ccc3n2)CS(=O)(=O)C1 [Example 32, 6-[[5-fluoro-3-(2,2,2-trifluoroethoxy)-2-pyridyl]oxy]-N-(3-methyl-1,1-dioxo-thietan-3-yl)imidazo[1,2-a]pyridine-2-carboxamide] | 31 nM |
| Cc1c(Oc2ncc(F)cc2OCC2(F)CC2)ccc2nc(C(=O)NC3(C)CCS(=O)(=O)CC3)cn12 [Example 33, 6-[[5-fluoro-3-[(1-fluorocyclopropyl)methoxy]-2-pyridyl]oxy]-5-methyl-N-(4-methyl-1,1-dioxo-thian-4-yl)imidazo[1,2-a]pyridine-2-carboxamide] | 5.3 nM |
| CCOc1cccnc1Oc1ccc2nc(C(=O)N[C@@]3(C)CCS(=O)(=O)C3)cn2c1 [Example 35, 6-[(3-ethoxy-2-pyridyl)oxy]-N-[(3S)-3-methyl-1,1-dioxo-thiolan-3-yl]imidazo[1,2-a]pyridine-2-carboxamide] | 52 nM |
| CCOc1cccnc1Oc1ccc2nc(C(=O)N[C@@H]3CCCC[C@@H]3O)cn2c1 [Example 37] | 124 nM |
| CCOc1cccnc1Oc1ccc2nc(C(=O)NC3CC(C)(C)OC(C)(C)C3)cn2c1 [Example 38, 6-[(3-ethoxy-2-pyridyl)oxy]-N-(2,2,6,6-tetramethyltetrahydropyran-4-yl)imidazo[1,2-a]pyridine-2-carboxamide] | 56 nM |
| Cc1cc2nc(C(=O)NC3(C)CCS(=O)(=O)CC3)cn2c(C)c1Oc1ncc(F)cc1OCC(C)(F)F [Example 40, 6-[[3-(2,2-difluoropropoxy)-5-fluoro-2-pyridyl]oxy]-5,7-dimethyl-N-(4-methyl-1,1-dioxo-thian-4-yl)imidazo[1,2-a]pyridine-2-carboxamide] | 52 nM |
| Cc1cc2nc(C(=O)NC3(C)CCS(=O)(=O)CC3)cn2cc1Oc1ncc(Cl)cc1OCC1(F)COC1 [Example 41, 6-[[5-chloro-3-[(3-fluorooxetan-3-yl)methoxy]-2-pyridyl]oxy]-7-methyl-N-(4-methyl-1,1-dioxo-thian-4-yl)imidazo[1,2-a]pyridine-2-carboxamide] | 74 nM |
| CC1(CNC(=O)c2cn3cc(Oc4ncc(Cl)cc4OCC(F)(F)F)ccc3n2)CS(=O)(=O)C1 [Example 42, 6-[[5-chloro-3-(2,2,2-trifluoroethoxy)-2-pyridyl]oxy]-N-[(3-methyl-1,1-dioxo-thietan-3-yl)methyl]imidazo[1,2-a]pyridine-2-carboxamide] | 50 nM |

Results, then the compound that gave them:

| IC50 | SMILES |
| --- | --- |
| 6.2 nM | Cc1cc2nc(C(=O)NC3(C)CCS(=O)(=O)CC3)cn2cc1Oc1ncc(Cl)cc1OCC(F)(F)F [Example 30, 6-[[5-chloro-3-(2,2,2-trifluoroethoxy)-2-pyridyl]oxy]-7-methyl-N-(4-methyl-1,1-dioxo-thian-4-yl)imidazo[1,2-a]pyridine-2-carboxamide] |
| 9.1 nM | Cc1c(Oc2ncc(Cl)cc2OCC(C)(F)F)ccc2nc(C(=O)NC3(C)CCS(=O)(=O)CC3)cn12 [Example 31, 6-[[5-chloro-3-(2,2-difluoropropoxy)-2-pyridyl]oxy]-5-methyl-N-(4-methyl-1,1-dioxo-thian-4-yl)imidazo[1,2-a]pyridine-2-carboxamide] |
| 2.8 nM | Cc1c(Oc2ncc(F)cc2OCC(F)(F)F)ccc2nc(C(=O)NC3(C)CCS(=O)(=O)CC3)cn12 [Example 34, 6-[[5-fluoro-3-(2,2,2-trifluoroethoxy)-2-pyridyl]oxy]-5-methyl-N-(4-methyl-1,1-dioxo-thian-4-yl)imidazo[1,2-a]pyridine-2-carboxamide] |
| 30 nM | Cc1c(Oc2ncccc2OCC(F)(F)F)ccc2nc(C(=O)NC3(C)CCS(=O)(=O)CC3)cn12 [Example 36, 5-methyl-N-(4-methyl-1,1-dioxo-thian-4-yl)-6-[[3-(2,2,2-trifluoroethoxy)-2-pyridyl]oxy]imidazo[1,2-a]pyridine-2-carboxamide] |
| 74 nM | CC1(NC(=O)c2cn3c(F)c(Oc4ncccc4OCC(F)(F)F)ccc3n2)CCS(=O)(=O)CC1 [Example 39, 5-fluoro-N-(4-methyl-1,1-dioxo-thian-4-yl)-6-[[3-(2,2,2-trifluoroethoxy)-2-pyridyl]oxy]imidazo[1,2-a]pyridine-2-carboxamide] |
